Source: PubChem BioAssay (NCI)
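Each compound was tested at five concentrations against cells in 96-well plates for 48 hours. The concentration for full growth arrest is given as TGI.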

Key:
Assay in all cases: NCI anticancer screen, dose series, 48 h
[1] = tested on: SW-620 colon
[2] = tested on: T-47D breast
[3] = tested on: HCT-116 colon
[4] = tested on: NCI/ADR-RES ovarian
[5] = tested on: OVCAR-8 ovarian
[6] = tested on: MDA-N
[7] = tested on: 786-0 renal
[8] = tested on: EKVX NSCLC
[9] = tested on: DU-145 prostate
[10] = tested on: RPMI-8226 leukemia
[11] = tested on: OVCAR-3 ovarian
[12] = tested on: UACC-62 melanoma
[13] = tested on: HT29 colon
[14] = tested on: TK-10 renal
[15] = tested on: K-562 leukemia
[16] = tested on: COLO 205 colon
[17] = tested on: M14 melanoma
[18] = tested on: HCC-2998 colon
[19] = tested on: U251 CNS
[20] = tested on: LOX IMVI melanoma
[21] = tested on: A498 renal
[22] = tested on: HCT-15 colon
[23] = tested on: HS 578T breast
[24] = tested on: RXF 393 renal
[25] = tested on: HOP-62 NSCLC
[26] = tested on: SF-268 CNS
[27] = tested on: MDA-MB-231 breast
[28] = tested on: UACC-257 melanoma
[29] = tested on: NCI-H23 lung
[30] = tested on: BT-549 breast
[31] = tested on: PC-3 prostate
[32] = tested on: MDA-MB-435
[33] = tested on: SNB-75 CNS
[34] = tested on: SK-MEL-5 melanoma
[35] = tested on: SK-OV-3 ovarian
[36] = tested on: OVCAR-4 ovarian
[37] = tested on: NCI-H460 lung
[38] = tested on: KM12 colon
[39] = tested on: SF-295 CNS
[40] = tested on: NCI-H226 lung
[41] = tested on: ACHN renal
[42] = tested on: SF-539 CNS
[43] = tested on: SK-MEL-28 melanoma
[44] = tested on: CCRF-CEM leukemia
[45] = tested on: UO-31 renal
[46] = tested on: SK-MEL-2 melanoma
[47] = tested on: SR leukemia
[48] = tested on: HOP-92 NSCLC
[49] = tested on: NCI-H522 lung
[50] = tested on: SNB-19 CNS
[51] = tested on: MOLT-4 leukemia
[52] = tested on: CAKI-1 renal
[53] = tested on: MALME-3M melanoma
[54] = tested on: HL-60(TB) leukemia
[55] = tested on: A549 NSCLC
[56] = tested on: OVCAR-5 ovarian

With `COC(=O)[C@@]12C(=O)C(C)C(=O)[C@]1(C)C(C)=C[C@H]1[C@]3(C=O)CC[C@H](OC(C)=O)C(C)(C)[C@H]3CC[C@@]12C` (stereo partly specified) the TGI [1] was > 100 µM, the TGI [2] was > 100 µM and the TGI [3] was > 100 µM. For the same compound, the TGI [4] was > 100 µM, the TGI [5] was > 100 µM and the TGI [6] was > 100 µM. For the same compound, the TGI [7] was > 100 µM, the TGI [8] was > 100 µM and the TGI [9] was > 100 µM. For the same compound, the TGI [10] was > 100 µM, the TGI [11] was > 100 µM and the TGI [12] was > 100 µM. The TGI [13] was > 100 µM, the TGI [14] was > 100 µM and the TGI [15] was > 100 µM. For the same compound, the TGI [16] was > 100 µM, the TGI [17] was > 100 µM and the TGI [18] was > 100 µM. For the same compound, the TGI [19] was > 100 µM, the TGI [20] was > 100 µM and the TGI [21] was > 100 µM. The TGI [22] was > 100 µM, the TGI [23] was > 100 µM and the TGI [24] was > 100 µM. For the same compound, the TGI [25] was > 100 µM, the TGI [26] was > 100 µM and the TGI [27] was > 100 µM. For the same compound, the TGI [28] was > 100 µM, the TGI [29] was > 100 µM and the TGI [30] was > 100 µM. For the same compound, the TGI [31] was > 100 µM, the TGI [32] was > 100 µM and the TGI [33] was > 100 µM. The TGI [34] was > 100 µM, the TGI [35] was > 100 µM and the TGI [36] was > 100 µM. The TGI [37] was > 100 µM, the TGI [38] was > 100 µM and the TGI [39] was > 100 µM. For the same compound, the TGI [40] was > 100 µM, the TGI [41] was > 100 µM and the TGI [42] was > 100 µM. For the same compound, the TGI [43] was > 100 µM, the TGI [44] was 63.8 µM and the TGI [45] was > 100 µM. The TGI [46] was > 100 µM, the TGI [47] was > 100 µM and the TGI [48] was > 100 µM. For the same compound, the TGI [49] was > 100 µM, the TGI [50] was > 100 µM and the TGI [51] was 69.1 µM. The TGI [52] was > 100 µM, the TGI [53] was > 100 µM and the TGI [54] was 52.3 µM. The TGI [55] was > 100 µM and the TGI [56] was > 100 µM.
